Experimental data from patent US7989165B2, “Tape stripping methods for analysis of skin disease and pathological skin state” (DermTech International, priority 2004, dated 2011).
“And” between values parts separate entries of the source, which are not always exact repeats. Identical values can stand only once. Marks after values point to notes of the source that are not given here.

Columns and labels:
IL-1β mRNA = test: Semi-quantitative RT-PCR of IL-1β mRNA relative to β-actin in SLS-occluded skin (tape and biopsy); format: in vivo, human
Description: Clinical protocols: The study protocols were reviewed and approved by an independent IRB (BioMed IRB, San Diego) and all subjects signed informed consent. […] The bandages were made using a clear, non-porous plastic hypoallergenic adhesive tape. […] The sites were scored by a trained technician using the scale provided below. […] Abbott Laboratories). […] An area of uninvolved skin was tape harvested and shave biopsied in an identical manner. […] The following grading scale was used: 0, no visible reaction; 1, slight, pink, patchy erythema; 2, mild confluent, pink erythema; 3, moderate erythema (definite redness) with edema; 4, strong erythema (very intense redness) with edema. […] Patches were removed, scored and tape stripped as above. In a third study, two individuals were tape stripped on uninvolved skin on the upper back at three adjacent sites as above. RNA harvested in these last two studies was used in the DNA microarray experiments described below. Isolation of RNA: […] Extraction was performed using the manufacturer's directions and included a Proteinase K digestion, sonication of tapes and “on-column” DNase I digestion. […] Extraction of biopsies was performed with the same kit according to the manufacturer's instructions. Quantitative RT-PCR: 10 μl of RNA was reverse transcribed (RT) into cDNA with the Sensiscript Reverse Transcriptase kit and random hexamers in a final volume of […] according to the manufacturer's directions. […] All RT-reactions were amplified using 2 replicates and were negative (data not shown). Amplification and detection of specific mRNA: Specific mRNAs were converted to cDNA as described above. […] Amplification and detection assays were performed using TaqMan Pre-Developed Assay Reagents (PDAR; […] GAPDH mRNA assays were done in singleplex format. Thermal cycling conditions were: prior to cycling, two minutes at 50° C., then ten minutes at 95° C.; then 40 cycles at 95° C. for 15 seconds and 60° C. for 60 seconds. […] Semi-quantitation of mRNA using the ΔΔCt method: In this Example the comparative or ΔΔCt method of calculating relative gene expression levels between two samples, was used. In the ΔΔCt method the levels of IL-1β, IL-8 and GAPDH mRNAs are assayed semi-quantitatively by normalization to β-actin mRNA to create a ratio of (mRNAx)/(β-actin) mRNA for each RNA sample. This ratio is then further normalized to a control sample (a process called “calibration”; (Applied Biosystems 2001)). When comparing the ratio of mRNAx to β-actin mRNA between two different samples, it is implicitly assumed that the level of β-actin mRNA to total RNA is constant between the two samples (i.e. it is an unchanging housekeeping gene). […] The Ct values are the experimentally determined number of PCR cycles required to achieve a threshold fluorescence (statistically significant increase in fluorescence over background) for mRNAx and β-actin mRNA (Gibson, Heid et al. 1996; Heid, Stevens et al. 1996). Calculation of fold-increase and data analysis: Key to the method used to measure mRNA is the fact that the quantity of specific mRNA directly correlates with the number of cycles needed to reach threshold fluorescence, thus the fewer the number of cycles (the lower the Ct), the more mRNA is initially present. As described above, experimental data is reported as the number of cycles (Ct) required to reach a threshold fluorescence. […] The significance of ΔCt values (Tables I and IV) was determined by applying a two-sided, paired t-test. […]

Krt-17 mRNA = test: RT-PCR of keratin-17 mRNA relative to β-actin in SLS-irritated and control skin (tape and biopsy); format: in vivo, human; design: key to ΔCt,Krt-17, Tape, SLS / ΔCt,Krt-17, Biopsy, SLS: ΔCt: keratin mRNA Ct normalized to β-actin Ct in same sample; conditions: for ΔCt,Krt-17, Biopsy, SLS / ΔCt,Krt-17, Tape, SLS: 1% SLS occlusive patch 24 hours, mid-back, relative to β-actin, per subject 1-10 and Average; for ΔCt,Krt-17, Biopsy, SLS / Fold Increase Krt-17/βactin mRNA ratio vs. normal, Biopsy, SLS: biopsy RNA; for ΔCt,Krt-17, Biopsy, SLS / ΔCt,Krt-17, Tape, SLS / Fold Increase Krt-17/βactin mRNA ratio vs. normal, Biopsy, SLS / Fold Increase Krt-17/βactin mRNA ratio vs. normal, Tape, SLS: sulfate; for ΔCt,Krt-17, Tape, SLS / Fold Increase Krt-17/βactin mRNA ratio vs. normal, Tape, SLS: tape-stripped RNA; for Fold Increase Krt-17/βactin mRNA ratio vs. normal, Biopsy, SLS / Fold Increase Krt-17/βactin mRNA ratio vs. normal, Tape, SLS: 1% SLS patch 24 hours vs untreated skin, per subject and Average
Description: The samples analyzed in this study are those described in the protocol performed by Wong et al. (Wong, Tran et al. 2004). […] Patches were removed and equivalent skin sites were biopsied and tape stripped as described in the Examples above. As an additional control, normal skin was also biopsied and tape stripped. Samples were processed for total RNA and assayed for keratin-10, keratin-16, keratin-17 and β-actin mRNA. The keratin mRNAs were normalized to β-actin mRNA in each sample. The semi-quantitative RT-PCR assay has been previously described (Wong, Tran et al. 2004).

[1] = SLS-occluded skin vs uninvolved skin

CCCCCCCCCCCCOS(=O)(=O)[O-].[Na+] [SLS, sodium lauryl sulfate]
fold-change in IL-1β/β-actin mRNA ratio, Biopsy (IL-1β mRNA; SLS-occluded skin relative to uninvolved skin, biopsy samples, per subject, > = minimum estimate, sulfate): >15**^† fold and >3.3** fold and >8**^† fold and >34**^† fold and >11**^† fold and 56**^† fold and >53**^† fold and 2.2** fold and 1 fold and >28**^† fold | fold-change in IL-1β/β-actin mRNA ratio, Tape (IL-1β mRNA; SLS-occluded skin relative to uninvolved skin, tape samples, per subject, > = minimum estimate, sulfate): 18**^† fold and >0.44 fold and >8.1**^† fold and >1.9** fold and >5** fold and >1.4 fold and >7.3**^† fold | biopsy samples with significantly elevated IL-1β/β-actin mRNA ratio (IL-1β mRNA; [1]): 9 of 10 | tape-harvested samples with significant increases in IL-1β/β-actin mRNA (IL-1β mRNA; [1]): 5 of 10 | SLS-treated biopsy samples with significant increases in IL-1β/actin mRNA ratio calibrated to the water-treated site (IL-1β mRNA; of 10 biopsy samples): 7 samples | ΔCt,Krt-17, Biopsy, SLS (Krt-17 mRNA): 0.71 and −2.29 and −2.5 and 1.13 and −1.97 and −1.63 and −2.91 and −1.75 and −1.86 and −0.11 | ΔCt,Krt-17, Biopsy, SLS (Krt-17 mRNA; mean): −1.32 | ΔCt,Krt-17, Tape, SLS (Krt-17 mRNA): −5.12 and 1.64 and 1.5 and −4.87 and −1.79 and 1.11 and −1.84 and 1.38 and 0.21 and −2.12 | ΔCt,Krt-17, Tape, SLS (Krt-17 mRNA; mean): −0.99 | Fold Increase Krt-17/βactin mRNA ratio vs. normal, Biopsy, SLS (Krt-17 mRNA): 13.31 fold and 94.54 fold and 44.95 fold and 4.51 fold and 27.19 fold and 15.44 fold and 459.45 fold and 195.94 fold and 48.35 fold and 41.13 fold | Fold Increase Krt-17/βactin mRNA ratio vs. normal, Biopsy, SLS (Krt-17 mRNA; mean): 42.52 fold | Fold Increase Krt-17/βactin mRNA ratio vs. normal, Tape, SLS (Krt-17 mRNA): 1.67 fold and 0.02 fold (2×) and 0.01 fold and 0.17 fold and 0.05 fold and 0.04 fold and 0.5 fold | Fold Increase Krt-17/βactin mRNA ratio vs. normal, Tape, SLS (Krt-17 mRNA; mean): 0.12 fold | average fold-increase of K17, biopsy (Krt-17 mRNA; SLS-treated skin vs untreated): 42 fold | decrease of K17/actin mRNA ratio, tape (Krt-17 mRNA; SLS-treated skin vs untreated): 8 fold
